In ChEMBL document CHEMBL5131445, “Optimization of a novel piperazinone series as potent selective peripheral covalent BTK inhibitors” (Bioorg Med Chem Lett, 2022):

How the values were obtained:
Cytochrome P450 2C9 = Cytochrome P450 2C9 (Homo sapiens, UniProt P11712); assay: Inhibition of human CYP2C9; assay type: ADME
Cytochrome P450 1A2 = target: T1, Cytochrome P450 1A2 (Homo sapiens, UniProt P05177); assay: Inhibition of human CYP1A2; assay type: ADME
T1 sequence (P05177 whole entry): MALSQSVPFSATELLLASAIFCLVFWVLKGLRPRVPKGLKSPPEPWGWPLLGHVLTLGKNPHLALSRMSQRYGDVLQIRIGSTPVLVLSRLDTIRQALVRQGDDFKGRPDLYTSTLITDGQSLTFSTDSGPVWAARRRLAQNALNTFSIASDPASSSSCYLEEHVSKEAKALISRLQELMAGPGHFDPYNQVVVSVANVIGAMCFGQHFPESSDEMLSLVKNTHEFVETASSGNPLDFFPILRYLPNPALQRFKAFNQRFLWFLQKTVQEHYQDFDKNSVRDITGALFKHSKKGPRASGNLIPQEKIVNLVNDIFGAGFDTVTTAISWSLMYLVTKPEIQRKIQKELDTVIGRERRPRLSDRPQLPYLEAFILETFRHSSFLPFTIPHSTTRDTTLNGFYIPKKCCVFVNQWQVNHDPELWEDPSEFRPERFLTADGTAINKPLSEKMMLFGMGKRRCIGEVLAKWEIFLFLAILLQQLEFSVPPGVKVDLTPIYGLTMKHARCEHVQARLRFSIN

BCRP = assay: Permeability across apical to basolateral side in dog MDCK-BCRP cells; assay type: ADME, cell-based, Canis lupus familiaris; conditions: read-out: permeability
Cytochrome P450 3A4 = Cytochrome P450 3A4 (Homo sapiens, UniProt P08684); assay: Inhibition of human CYP3A4; assay type: ADME
Sequence of Cytochrome P450 3A4 (P08684 whole entry): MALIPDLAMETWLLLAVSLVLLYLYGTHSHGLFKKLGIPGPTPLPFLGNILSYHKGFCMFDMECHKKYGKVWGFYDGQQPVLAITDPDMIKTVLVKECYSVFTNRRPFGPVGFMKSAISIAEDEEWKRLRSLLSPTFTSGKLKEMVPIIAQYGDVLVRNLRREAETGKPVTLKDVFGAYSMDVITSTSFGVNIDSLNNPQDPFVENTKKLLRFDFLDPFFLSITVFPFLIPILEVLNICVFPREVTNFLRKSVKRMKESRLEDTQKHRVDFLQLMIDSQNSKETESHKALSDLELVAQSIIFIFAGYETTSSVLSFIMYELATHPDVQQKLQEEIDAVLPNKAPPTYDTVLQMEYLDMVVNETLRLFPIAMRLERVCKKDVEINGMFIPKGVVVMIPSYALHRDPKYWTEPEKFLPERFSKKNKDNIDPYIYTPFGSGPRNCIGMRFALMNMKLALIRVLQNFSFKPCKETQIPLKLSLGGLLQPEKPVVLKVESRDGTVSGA

[1] = Metabolic stability in rat liver microsomes assessed as intrinsic clearance; assay type: ADME, Microsome; conditions: read-out: CLH
[2] = Plasma protein binding in rat assessed as unbound fraction by rapid equilibrium dialysis method; assay type: ADME, cell-free
MDR1 = assay: Permeability across apical to basolateral side in dog MDCK-MDR1 cells; assay type: ADME, cell-based, Canis lupus familiaris; conditions: read-out: permeability

Sequence of Cytochrome P450 2C9 (P11712 whole entry): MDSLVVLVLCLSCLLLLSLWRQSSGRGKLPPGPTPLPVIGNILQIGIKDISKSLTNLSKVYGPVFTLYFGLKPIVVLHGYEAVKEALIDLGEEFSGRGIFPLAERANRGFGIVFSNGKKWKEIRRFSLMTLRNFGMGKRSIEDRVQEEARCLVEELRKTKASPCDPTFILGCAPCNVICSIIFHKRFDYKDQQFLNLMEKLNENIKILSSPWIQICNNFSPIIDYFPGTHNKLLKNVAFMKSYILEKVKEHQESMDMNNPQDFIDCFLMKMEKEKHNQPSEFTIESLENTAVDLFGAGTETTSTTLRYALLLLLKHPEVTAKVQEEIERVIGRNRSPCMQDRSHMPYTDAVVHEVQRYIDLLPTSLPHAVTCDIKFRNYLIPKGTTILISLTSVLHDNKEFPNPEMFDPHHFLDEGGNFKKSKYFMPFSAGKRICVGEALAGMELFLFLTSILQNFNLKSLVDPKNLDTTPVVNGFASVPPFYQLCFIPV

IC50 (Cytochrome P450 2C9): > 10 µM
IC50 (Cytochrome P450 1A2): > 10 µM
Papp A→B (BCRP): 0.4 ×10⁻⁶ cm/s
IC50 (Cytochrome P450 3A4): > 10 µM
CLint scaled [1]: 154 mL/min/kg
fraction unbound [2]: 0.169
Papp A→B (MDR1): 0.32 ×10⁻⁶ cm/s
SMILES: C=CC(=O)N(C)CCOc1c(N)ncnc1-c1ccc(CN2CCN(CC(C)C)CC2=O)c(C)c1
